Usually half-life stands for the time needed for the level to fall by half in the phase considered. The low end stands for fast loss, the high end for slow loss. By microsomal CLint is commonly meant a measure of how fast metabolising enzymes remove a compound, apart from limits set by blood flow. A high value points to rapid turnover. What is called IC50 is the concentration that gives 50% inhibition. A low value points to higher potency.

This note sets out measurements from paper PMC7852560 (Neuropsychopharmacology, 2020).

Values joined by “and” are separate entries in the source; they are usually repeats but may differ in a detail not shown here. Equal entries are not always repeated.

The nature of data set [1]: in vitro. The class given is in vitro ADME, human. The note with it: pH 7.4. Here is the method:
Microsomal stability assays were conducted by Cyprotex Ltd (Macclesfield, UK).
The study of drug stability in the presence of liver microsomes is accepted as a valuable model for permitting rapid prediction of in vivo drug stability (see Kerns & Di, 2008). Microsomal stability studies were performed by Cyprotex Ltd (Macclesfield, UK). […] Microsomes (final protein concentration 0.5 mg/mL), 0.1 M phosphate buffer pH 7.4, and test compound (final concentration 3 μM; diluted from 10 mM stock solution to give a final DMSO concentration of 0.25%) were incubated at 37°C prior to the addition of NADPH (final concentration 1 mM) to initiate the reaction with a final incubation volume of 25 µL. A control incubation was included for each compound tested, where 0.1 M phosphate buffer pH 7.4 was added instead of NADPH. The control compounds testosterone and 7-hydroxycoumarin were included in each experiment and all incubations were performed singularly for each compound. […] Following protein precipitation, the sample supernatants were combined in cassettes of up to 4 compounds and analyzed using standard LC-MS/MS conditions. From a plot of the natural logarithm of the peak area ratio (i.e., the ratio of compound peak area: internal standard peak area) against time, the gradient of the line was determined. Subsequently, half-life and intrinsic clearance were calculated using the equations below: […]

Data set [2] addresses CB1R (Homo sapiens, UniProt P21554). Put plainly: cell-based. The data set is classed as cell-based. Here is the method:
The cAMP BRET experiments were performed as previously described. Briefly, hCB1R HEK293 cells were transfected with 5 µg/10 cm dish of the CAMYEL biosensor using polyethylenimine. After 24 h, the cells were plated into white 96-well plates (PerkinElmer) at a density of 60,000 cells/well.
Cyclic AMP accumulation was measured using a DiscoverX HitHunter® cAMP Assay for Small Molecules (DiscoverX, Fremont, CA). hCB1R CHO cells were seeded at a density of 40,000 cells/well in 96-well white plates and grown overnight at 37 °C, 5% CO2 in a humidified incubator. […] Vehicle concentration was 1% DMSO, 0.1% BSA. Following agonist incubation, 15 µl of cAMP antibody reagent and 60 µl of working cAMP detection solution (containing 19 parts cAMP lysis buffer, 5 parts Substrate Reagent 1, 1 part Substrate Reagent 2 and 25 parts of cAMP Solution D) were added to all wells. Assay plates were incubated in the dark for 1 hr at room temperature, followed by addition of 60 µl cAMP solution A to all wells and incubation for 3 hr at room temperature in the dark. Plates were read using a GloMax Discover plate-reader (Promega, Madison, WI).

Data set [3] deals with T1, CB2 (Homo sapiens, UniProt P34972).
T1 construct: Eurofins Cerep
Put plainly: SafetyScreen44 panel: CB2. The class given is binding. As to conditions: 1 µM. Here is the method:
(§1) The screen assesses the selectivity of the compound on a diverse panel of targets that includes GPCRs, drug transporters, ion channels, nuclear receptors, kinases, and other non-kinase enzymes. The screen employs radioligand binding or enzyme assays for these 44 targets.
(§2) For receptor assays, binding was calculated as percent inhibition of the binding of a radioactively labeled ligand specific for each target. For enzyme assays, the inhibition effect was calculated as percent inhibition of control enzyme activity. Tests were performed in duplicate, and results are averages of those two tests. See https://www.eurofinsdiscoveryservices.com.

The target in data set [4] is Dopamine D1 (Homo sapiens, UniProt P21728). Description: SafetyScreen44 panel: Dopamine D1. The class given is binding. The note with it: 1 µM. Here is the method:
as §1, §2

Data set [5] has as its system Male Sprague Dawley rats. As to conditions: 10 mg/kg i.p. Here is the method:
Male Sprague Dawley rats (PD>63) were trained on a CAR protocol and responding following drug exposure was determined. […] Animals were trained to learn a house light (CS) as predictive of an avoidable 0.6mA scrambled foot shock (US). Each session consisted of 50 trials and animals avoided >70% of trials on the final acquisition session were tested for CAR during vehicle baseline, drug exposure, and re-emergence. In addition to CAR testing, both temperature and catalepsy were recorded in these animals (measure of potential CB1R agonism). Temperature: recorded on first day of drug exposure, prior to injection and 60-90-min. following drug exposure.

CB1R, sequence (P21554 whole entry): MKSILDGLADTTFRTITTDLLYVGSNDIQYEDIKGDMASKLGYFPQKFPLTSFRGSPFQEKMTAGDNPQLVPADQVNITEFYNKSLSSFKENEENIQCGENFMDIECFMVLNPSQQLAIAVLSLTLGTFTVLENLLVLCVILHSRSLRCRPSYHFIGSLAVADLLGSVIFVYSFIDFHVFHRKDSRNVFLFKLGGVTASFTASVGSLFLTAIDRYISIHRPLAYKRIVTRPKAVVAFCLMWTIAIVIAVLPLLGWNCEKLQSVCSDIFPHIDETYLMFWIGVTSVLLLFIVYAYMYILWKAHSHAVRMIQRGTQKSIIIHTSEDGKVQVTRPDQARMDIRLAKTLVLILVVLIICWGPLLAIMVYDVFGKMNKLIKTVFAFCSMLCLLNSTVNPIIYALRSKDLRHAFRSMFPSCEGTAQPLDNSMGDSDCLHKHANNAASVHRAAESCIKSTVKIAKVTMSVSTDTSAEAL
T1 sequence (P34972 whole entry): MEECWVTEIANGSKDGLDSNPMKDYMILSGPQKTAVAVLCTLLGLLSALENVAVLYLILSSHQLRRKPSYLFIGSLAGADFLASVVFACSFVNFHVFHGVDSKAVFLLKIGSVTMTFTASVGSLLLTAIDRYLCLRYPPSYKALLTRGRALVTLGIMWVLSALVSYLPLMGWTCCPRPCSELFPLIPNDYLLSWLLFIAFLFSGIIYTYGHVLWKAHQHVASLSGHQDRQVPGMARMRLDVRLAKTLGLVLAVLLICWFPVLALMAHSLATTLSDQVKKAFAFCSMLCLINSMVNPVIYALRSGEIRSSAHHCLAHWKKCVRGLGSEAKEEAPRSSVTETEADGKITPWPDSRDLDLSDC
Dopamine D1, sequence (P21728 whole entry): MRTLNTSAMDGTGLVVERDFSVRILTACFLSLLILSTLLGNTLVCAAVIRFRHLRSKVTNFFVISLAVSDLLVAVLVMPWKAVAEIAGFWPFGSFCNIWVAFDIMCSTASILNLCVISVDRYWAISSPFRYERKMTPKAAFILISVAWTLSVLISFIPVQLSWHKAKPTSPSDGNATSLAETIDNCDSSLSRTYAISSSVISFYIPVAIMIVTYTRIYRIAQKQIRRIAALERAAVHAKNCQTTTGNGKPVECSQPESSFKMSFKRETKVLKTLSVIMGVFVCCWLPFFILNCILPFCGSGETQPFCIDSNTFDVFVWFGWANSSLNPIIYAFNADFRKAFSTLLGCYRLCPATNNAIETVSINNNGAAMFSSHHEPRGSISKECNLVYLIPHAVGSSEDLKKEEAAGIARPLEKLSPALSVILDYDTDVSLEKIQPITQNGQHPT

Compound `CCc1c(-c2nnc(Nc3ccccc3)o2)[nH]c2ccc(Cl)cc12` [ABM300, 5-(5-chloro-3-ethyl-1H-indol-2-yl)-N-phenyl-1,3,4-oxadiazol-2-amine] registered a half-life at 3 µM in data set [1] (microsomes, human liver microsomal preparations) of 1.82 h. Besides, in data set [1] (human liver microsomes), the microsomal CLint at 3 µM turned out to be 12.7 ± 3.4 µL/min/mg. Further, in data set [2], the IC50 was 379 nM and 355 nM and 380 nM. In addition, the “binding to CB2” value in data set [3] is on record as “did not display any significant binding”. Moreover, the “binding to Dopamine D1” value in data set [4] is given as “did not display any significant binding”. In addition, in data set [5], the catalepsy entry is “did not induce catalepsy” and the “changes in body temperature” value is “did not induce catalepsy, or changes in body temperature”.
